# Values quoted from earlier work, collected in patent US7006921B1, “Method for accurately estimating pKa of molecules using atom type definitions and partial least squares” (priority 1999, dated 2006).
# Settings: first or only pKa
row,Measured (pKa),SMILES
1,6.65,Nc1ccnnc1 [4-aminopyridazine]
2,2.5,"O=C(O)c1ccc(Br)cc1C(=O)O [4-bromo-1,2-benzenedicarboxylic acid, 4-bromo-1,2-benzenedicarboxylic acid]"
3,1.80,"Nc1ccc(Br)c([N+](=O)[O-])c1 [4-bromo-3-nitroaniline, 4-bromo-3-nitroaniline]"
4,4.06,"O=C(O)c1cc(Br)c[nH]1 [4-bromopyrrol-2-carboxylic acid, 4-bromopyrrol-2-carboxylic acid]"
5,9.71,"Cc1cc(O)cc(C)c1Cl [4-chloro-3,5-dimethylphenol, 4-chloro-3,5-dimethylphenol]"
6,4.34,"COc1cc(C(=O)O)cc(OC)c1O [4-hydroxy-3,5-dimethoxybenzoic acid, 4-hydroxy-3,5-dimethoxybenzoic acid]"
7,9.82,"NCCNCCO [5-amino-3-azapentanol, 5-amino-3-azapentanol]"
8,9.0,Oc1c(O)c(O)c(O)c(O)c1O [Benzenehexol]
9,2.63,"O=C(O)c1coc(C(=O)O)c1 [Furan-2,4-dicarboxylic acid, Furan-2,4-dicarboxylic acid]"
10,6.2,C1N2CN3CN1CN(C2)C3 [Hexamethylenetetramine]
11,2.17,CSCC[C@H](N)C(=O)O [Methionine]
12,8.28,"CC#CCN(C)C [N,N-dimethyl-2-butyn-1-amine, N,N-dimethyl-2-butyn-1-amine]"
13,3.74,"O=C(O)c1cc[nH]n1 [Pyrazole-3-carboxlylic acid, Pyrazole-3-carboxlylic acid]"
14,9.12,Oc1cccc(O)c1O [Pyrogallol]
15,6.04,c1c[nH]cn1 [imidazole]

# The remaining lines, values behind:
row,SMILES,Measured (pKa)
1,"O=C(O)c1cnn[nH]1 [1,2,3-triazole-4-carboxylic acid, 1,2,3-triazole-4-carboxylic acid]",3.22
2,"NCCSCCSCCN [1,8-diamino-3,6-dithiaoctane, 1,8-diamino-3,6-dithiaoctane]",9.47
3,CC(C)NCC(O)C1CCC(O)CC1 (stereo not shown) [1-(4′-hydroxycyclohexyl)-2-(isopropylamino)-ethanol],10.23
4,"CC(=O)OCCN(C)C [2-(dimethylamino)-ethyl acetate, 2-(dimethylamino)-ethyl acetate]",8.35
5,"CNCC(N)=O [2-(methylamino)-acetamide, 2-(methylamino)-acetamide]",8.31
6,"CC(=O)C(CC(=O)O)C(=O)O (stereo not shown) [2-acetylbutanedioic acid, 2-acetylbutanedioic acid]",2.86
7,NC1CCCCCC1O (stereo not shown) [2-aminocycloheptanol],9.25
8,CC(=O)c1cccnc1 [3-acetylpyridine],3.26
9,"COc1cncc(Br)c1 [3-bromo-5-methoxypyridine, 3-bromo-5-methoxypyridine]",2.60
10,Oc1cccnc1 [3-hydroxypyridine],4.80
11,"Nc1cc(Cl)ncn1 [4-amino-6-chloropyrimidine, 4-amino-6-chloropyrimidine]",2.10

# Same assay, conditions: second value of the cell, pKa2
row,SMILES,Measured (pKa2)
1,Oc1cccnc1 [3-hydroxypyridine],8.74
2,CSCC[C@H](N)C(=O)O [Methionine],9.20
